Test results published in ChEMBL document CHEMBL1134530, “Synthesis and biological activity of 7-oxo substituted analogues of 5-deaza-5,6,7,8-tetrahydrofolic acid (5-DATHF) and 5,10-dideaza-5,6,7,8-tetrahydrofolic acid (DDATHF)” (J Med Chem, 2001).
≈ marks a conversion by molar mass, not a printed value.

System: CCRF-CEM
Assay: Compound was tested for cytotoxic activity in CCRF-CEM Human Leukemia cells by in vitro cytotoxicity assay
Format: functional, cell-based

Row | SMILES | IC50 [ng/mL]
1 | Nc1nc(O)c2c(n1)NCC(CCc1ccc(C(=O)NC(CCC(=O)O)C(=O)O)cc1)C2 (stereo not given) | 7 (≈ 0.0158 µM)
2 | CN(CC1Cc2c(O)nc(N)nc2NC1=O)c1ccc(C(=O)NC(CCC(=O)O)C(=O)O)cc1 (stereo not given) | > 20000
3 | Nc1nc(O)c2c(n1)NC(=O)C(CCc1ccc(C(=O)NC(CCC(=O)O)C(=O)O)cc1)C2 (stereo not given) | > 20000
4 | Nc1nc(O)c2c(n1)NC(=O)C(CNc1ccc(C(=O)NC(CCC(=O)O)C(=O)O)cc1)C2 (stereo not given) | > 20000
5 | CN(Cc1cnc2nc(N)nc(N)c2n1)c1ccc(C(=O)N[C@@H](CCC(=O)O)C(=O)O)cc1 [METHOTREXATE] | 4 (≈ 0.0088 µM)
